From patent US5462958A, “Benzene derivatives and method of treating arteriosclerosis with benzene derivatives” (Eisai Co., Ltd., priority 1992, dated 1995)

Experiments:
Format in all cases: biochemical
ACAT [1] = target: T1, ACAT (Rattus norvegicus, UniProt Q7TQM4); experiment: ACAT-inhibitory activity in vitro, microsome of the small intestine of a rat (acylation of cholesterol with radiolabeled oleoyl-CoA)
T1 construct: the microsome of the small intestine of a rat; from tissue; host or cells: microsomes of rat small intestine
T1 sequence (Q7TQM4 1-524): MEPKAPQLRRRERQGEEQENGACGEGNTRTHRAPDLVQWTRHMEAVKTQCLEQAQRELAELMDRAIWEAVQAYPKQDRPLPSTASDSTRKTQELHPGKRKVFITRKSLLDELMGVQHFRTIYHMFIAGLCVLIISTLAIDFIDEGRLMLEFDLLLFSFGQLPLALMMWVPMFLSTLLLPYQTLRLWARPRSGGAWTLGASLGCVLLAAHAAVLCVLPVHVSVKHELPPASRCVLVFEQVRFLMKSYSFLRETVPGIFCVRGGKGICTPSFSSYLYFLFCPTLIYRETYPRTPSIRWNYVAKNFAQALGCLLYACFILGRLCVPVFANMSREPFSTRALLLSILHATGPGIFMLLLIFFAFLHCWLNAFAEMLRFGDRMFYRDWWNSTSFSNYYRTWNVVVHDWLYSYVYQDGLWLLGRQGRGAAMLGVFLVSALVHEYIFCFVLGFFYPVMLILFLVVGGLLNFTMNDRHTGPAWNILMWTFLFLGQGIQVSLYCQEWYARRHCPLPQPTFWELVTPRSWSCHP
Experimental: (§1) Representative compounds according to the present invention were examined for ACAT-inhibitory activity according to the in-vitro test method described in Journal of Lipid Research, vol. 24, pp. 1049-1059 (1983) by F. J. Field and S. N. Mathur.
(§2) The inhibitory activity of a test compound against the acylation, which was based on the inhibitory activity of the test compound against the enzyme which catalyzes the acylation of cholesterol with oleoyl-CoA, was evaluated by using one of the supernatant of homogenate of the arterial wall of a rabbit, the microsome of the small intestine of a rat and the supernatant of homogenate of the epithelial cell (CaCO2) resulting from human colon cancer as an enzyme source, determining the amount of a radioisotope-labeled cholesterol oleate made from a radiolabeled oleoyl-CoA and (free) cholesterol and comparing the result of the case when a test compound was added with the result of control (the case when no test compound was added).
(§3) The data which are given in Table 1 are IC50 values, i.e., the concentrations of test compounds necessary for inhibiting 50% of the enzymatic activity of ACAT.

ACAT [2] = target: T2, ACAT (Oryctolagus cuniculus, UniProt A0A5F9CPP4); experiment: ACAT-inhibitory activity in vitro, supernatant of homogenate of the arterial wall of a rabbit (acylation of cholesterol with radiolabeled oleoyl-CoA)
T2 construct: supernatant of homogenate of the arterial wall of a rabbit; from tissue; host or cells: supernatant of homogenate of rabbit arterial wall
T2 sequence (A0A5F9CPP4 1-555): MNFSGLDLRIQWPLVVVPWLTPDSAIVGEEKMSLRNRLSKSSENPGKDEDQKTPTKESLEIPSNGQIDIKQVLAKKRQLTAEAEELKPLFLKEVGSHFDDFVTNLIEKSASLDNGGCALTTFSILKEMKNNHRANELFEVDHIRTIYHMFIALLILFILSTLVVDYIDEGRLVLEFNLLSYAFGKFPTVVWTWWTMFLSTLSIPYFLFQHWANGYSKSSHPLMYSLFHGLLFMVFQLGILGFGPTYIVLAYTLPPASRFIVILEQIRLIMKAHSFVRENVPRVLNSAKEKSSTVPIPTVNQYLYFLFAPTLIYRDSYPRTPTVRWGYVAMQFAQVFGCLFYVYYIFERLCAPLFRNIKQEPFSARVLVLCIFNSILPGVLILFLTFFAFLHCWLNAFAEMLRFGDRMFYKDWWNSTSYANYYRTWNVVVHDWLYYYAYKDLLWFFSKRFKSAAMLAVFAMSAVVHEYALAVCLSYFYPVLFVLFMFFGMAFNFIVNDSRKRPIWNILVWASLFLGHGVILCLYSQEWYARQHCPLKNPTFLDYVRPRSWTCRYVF
Experimental: as §1, §2, §3

ACAT [3] = experiment: ACAT-inhibitory activity in vitro, supernatant of homogenate of the epithelial cell (CaCO2) resulting from human colon cancer (acylation of cholesterol with radiolabeled oleoyl-CoA)
Experimental: as §1, §2, §3

SMILES	IC50 (ACAT [1]) [nM]	IC50 (ACAT [2]) [nM]	IC50 (ACAT [3]) [nM]
CCCCNC(=O)Nc1c(OCCCn2cnc(-c3ccccc3)c2CC)ccc(O)c1C [Example 11, N-Butyl-N'-[2-[3-(5-ethyl-4-phenyl-1H-imidazol-1-yl)propoxy]-5-hydroxy-6-methylphenyl]urea]	68	260	100
CCc1c(-c2ccccc2)ncn1CCCOc1cccc(C)c1NC(N)=O [Example 8, N-[2-[3-(5-Ethyl-4-phenyl-1H-imidazol-1-yl)propoxy]-6-methylphenyl]urea]			3500
CCc1c(-c2ccccc2)ncn1CCCOc1cccc(C)c1NC(=O)NCCCCO [Example 6, N-(4-Hydroxybutyl)-N'-[2-[3-(5-ethyl-4-phenyl-1H-imidazol-1-yl)propoxy]-6-methylphenyl]urea]		3800	
CCCCNC(=O)Nc1c(C)cccc1OCCCn1cnc(-c2ccccc2)c1C(C)O (centres unmarked) [Example 5, N-Butyl-N'-[2-[3-[5-(1-hydroxyethyl)-4-phenyl-1H-imidazol-1-yl]propoxy]-6-methylphenyl]urea]	150	850	170
CCCCNC(=O)Nc1c(C)cc(O)cc1OCCCn1cnc(-c2ccccc2)c1CC [Example 1, N-Butyl-N'-[2-[3-(5-ethyl-4-phenyl-1H-imidazol-1-yl)propoxy]-4-hydroxy-6-methylphenyl]urea]		580	

More lines, in order of falling IC50 (ACAT [2]), values ahead:

IC50 (ACAT [1]) [nM]	IC50 (ACAT [2]) [nM]	IC50 (ACAT [3]) [nM]	SMILES
	6900	1000	CCCCNC(=O)Nc1c(C)cccc1OCCCn1cnc(-c2ccc(O)cc2)c1CC [Example 2, N-Butyl-N'-[2-[3-[5-ethyl-4-(4-hydroxyphenyl)-1H-imidazol-1-yl]propoxy]-6-methylphenyl]urea]
4200	1000	480	CCc1c(-c2ccccc2)ncn1CCCOc1cccc(C)c1NC(=O)NCCC(C)O (centres unmarked) [Example 10, N-(3-Hydroxybutyl)-N'-[2-[3-(5-ethyl-4-phenyl-1H-imidazol-1-yl)propoxy]-6-methylphenyl]urea]
84	700	320	CCCCNC(=O)Nc1c(CO)cccc1OCCCn1cnc(-c2ccccc2)c1CC [Example 9, N-Butyl-N'-[2-[3-(5-ethyl-4-phenyl-1H-imidazol-1-yl)propoxy]-6-hydroxymethylphenyl]urea]
